This is an account of results in EP0946580B1, “NOVEL ERYTHROMYCIN DERIVATIVES, METHOD OF PREPARATION AND APPLICATION AS MEDICINES” (Aventis Pharma S.A., priority 1996, dated 1998).

The structures appear in SMILES notation. Converted amounts (≈) assume the structure as drawn.

Common to all, as to format: cell-based
The test system of experiment [1] is Staphylococcus aureus 011UC4. The experiment can be described thus: Liquid medium dilution method (MIC). To be noted: 24 h incubation at 37°C, read-out: concentrations minimales inhibitrices (C.M.I.). As for the experimental part:
(§1) Méthode des dilutions en milieu liquide
(§2) On a préparé une série de tubes dans lesquels on répartit une même quantité de milieu nutritif stérile. On distribue dans chaque tube des quantités croissantes du produit à étudier, puis chaque tube est ensemencé avec une souche bactérienne. Après incubation de vingt-quatre heures à l'étuve à 37°C, l'inhibition de la croissance est appréciée par transillumination de ce qui permet de déterminer les concentrations minimales inhibitrices (C.M.I.) exprimées en microgrammes/cm^3.

Experiment [2] concerns Staphylococcus epidermidis 012GO11I. Nature of the experiment: Liquid medium dilution method (MIC). Conditions: 24 h incubation at 37°C, read-out: concentrations minimales inhibitrices (C.M.I.). As for the experimental part: as §1, §2
Experiment [3] concerns Streptococcus agalactiae groupe B 02B1HT1. The experiment can be described thus: Liquid medium dilution method (MIC). To be noted: 24 h incubation at 37°C, read-out: concentrations minimales inhibitrices (C.M.I.). As for the experimental part:
as §1, §2

Experiment [4] concerns Streptococcus agalactiae groupe B 02B1SJ1. The experiment can be described thus: Liquid medium dilution method (MIC). Conditions: 24 h incubation at 37°C, read-out: concentrations minimales inhibitrices (C.M.I.). As for the experimental part: as §1, §2
Experiment [5] deals with Streptococcus faecalis groupe D 02D2UC1. Nature of the experiment: Liquid medium dilution method (MIC). To be noted: Enterococcus faecalis, 24 h incubation at 37°C, read-out: concentrations minimales inhibitrices (C.M.I.). As for the experimental part: as §1, §2
The test system of experiment [6] is Streptococcus faecium groupe D 02D3HT1. The experiment can be described thus: Liquid medium dilution method (MIC). Conditions: Enterococcus faecium, 24 h incubation at 37°C, read-out: concentrations minimales inhibitrices (C.M.I.). As for the experimental part: as §1, §2
For experiment [7], the system named is Streptococcus mitis 02mitCB1. The experiment can be described thus: Liquid medium dilution method (MIC). To be noted: 24 h incubation at 37°C, read-out: concentrations minimales inhibitrices (C.M.I.). As for the experimental part:
as §1, §2

The test system of experiment [8] is Streptococcus mitis 02mitGR16I. The experiment can be described thus: Liquid medium dilution method (MIC). Conditions: 24 h incubation at 37°C, read-out: concentrations minimales inhibitrices (C.M.I.). As for the experimental part:
as §1, §2

The test system of experiment [9] is Streptococcus pneumoniae 030ROIi. The experiment can be described thus: Liquid medium dilution method (MIC). Conditions: 24 h incubation at 37°C, read-out: concentrations minimales inhibitrices (C.M.I.). As for the experimental part: as §1, §2
Experiment [10] relates to Streptococcus pyogenes groupe A 02A1UC1. The experiment can be described thus: Liquid medium dilution method (MIC). Conditions: 24 h incubation at 37°C, read-out: concentrations minimales inhibitrices (C.M.I.). As for the experimental part: as §1, §2
In experiment [11] the test system is Streptococcus sp groupe G 02G0GR5. The experiment can be described thus: Liquid medium dilution method (MIC). To be noted: 24 h incubation at 37°C, read-out: concentrations minimales inhibitrices (C.M.I.). As for the experimental part:
as §1, §2

Experiment [12] has as its system Haemophilus Influenzae 351HT3. The experiment can be described thus: Activity on gram-negative bacterial strains.
Experiment [13] concerns Haemophilus Influenzae 351CB12. Nature of the experiment: Activity on gram-negative bacterial strains.
Experiment [14] deals with Haemophilus Influenzae 351CA1. Nature of the experiment: Activity on gram-negative bacterial strains.
The test system of experiment [15] is Haemophilus Influenzae 351GR6. Nature of the experiment: Activity on gram-negative bacterial strains.

Take `CCC1OC(=O)C(C)=CC(C)C(OC2OC(C)CC(N(C)C)C2O)C(C)(OC)CC(C)C(=O)C(C)C2N(CCCCn3cnc(-c4cccnc4)c3)C(=O)OC12C` [Ex. 1, 2,3-didéhydro-11,12-didéoxy-3-de[(2,6-didéoxy-3-C-méthyl-3-O-méthyl-alpha-L-ribo-hexopyranosyl)oxy]6-O-méthyl-12,11-[oxycarbonyl[[4-[4-(3-pyridinyl)-1H-imidazol-1-yl]butyl]imino]]-érythromycine]: the MIC in experiment [1] was 0.08 µg/mL (≈ 0.101 µM); in [2], 0.15 µg/mL (≈ 0.188 µM); in experiment [3] it was ≤ 0.02 µg/mL; in experiment [4] it was 0.08 µg/mL (≈ 0.101 µM); in experiment [5] it was ≤ 0.02 µg/mL; in experiment [6], ≤ 0.02 µg/mL. Also, the MIC in experiment [7], in experiment [8], in experiment [9], in experiment [10] and in [11] was ≤ 0.02 µg/mL in each case. Moreover, the “activité sur les souches bactériennes à gram^⊖” value in [12], in experiment [13], in [14] and in [15] was “activité intéressante” each time.
